Patent US10844092B2, “Peptide for promoting regeneration of dentin or dental pulp tissue” (HysensBio Co., Ltd., priority 2016, dated 2020)

What follows are substances tested on Dspp gene (assay: mRNA level of Dspp gene in MDPC-23 cells by real-time PCR). Details: 48 hours, ratio relative to Dspp mRNA level of control group, triplicate.
Type: cell-based, mouse
Description: The MDPC-23 cells cultured in Example 2-1 were treated with the peptides of the respective groups which were synthesized in Example 1, and cultured for 48 hours. Then, mRNA levels of an odontoblast differentiation marker Dspp gene expressed in the MDPC-23 cells were measured, and a ratio of the measured Dspp mRNA level relative to a Dspp mRNA level measured in a control group was calculated, respectively (Tables 13 to 24). Further, mean values of the Dspp mRNA levels measured in the peptides of respective groups were compared between the groups (FIG. 1B). In this regard MDPC-23 cells which were treated with none of the peptides of the present invention were used as a control group.
The expression levels of the Dspp gene were measured by RT-PCR and real time PCR analysis: In detail, total RNA was extracted from the MDPC-23 cells with TRIzol reagent. 2 μg of the total RNA, 1 μl of reverse transcriptase, and 0.5 μg oligo (dT) were used to synthesize cDNA. The synthesized cDNA were used in real-time polymerase chain reaction. The real-time polymerase chain reaction was performed on an ABI PRISM 7500 sequence detection system (Applied Biosystems) using the following primers and a SYBR GREEN PCR Master Mix (Takara, Japan). The real-time polymerase chain reaction was performed under conditions of 94° C., 1 min; 95° C., 15 sec 60° C., 34 sec for 40 cycles. Results were analyzed by a comparative cycle threshold (CT) method. In this regard, Gapdh gene was used as an internal control. The experiments were performed in triplicate, and then mean values and standard deviations thereof were taken as measured values.

Compared with “1 (KYQRRKKNKY; Synthetic construct of novel peptide) [compound 1]”, “2 (KYQRRKRNKY; Synthetic construct of novel peptide) [compound 2]” is lower in “mRNA level of Dspp gene, Mean” value: 1.754 for the first, 1.646 for the second.

First: 3 (KYQRRRKNKY; Synthetic construct of novel peptide) [compound 3]
Second: 4 (KYQRRRRNKY; Synthetic construct of novel peptide) [compound 4]
The “mRNA level of Dspp gene, Mean” value of the first is lower: 1.464 for the first, 1.855 for the second.

Compared with “5 (KYQRKKKNKY; Synthetic construct of novel peptide) [compound 5]”, “6 (KYQRKRKNKY; Synthetic construct of novel peptide) [compound 6]” is higher in “mRNA level of Dspp gene, Mean” value: 1.639 for the first, 1.746 for the second.

Going from “7 (KYQRKKRNKY; Synthetic construct of novel peptide) [compound 7]” to “8 (KYQRKRRNKY; Synthetic construct of novel peptide) [compound 8]”, the “mRNA level of Dspp gene, Mean” value falls from 1.864 to 1.639.

First: 9 (KYQRRKKSKY; Synthetic construct of novel peptide) [compound 9]
Second: 10 (KYQRRKRSKY; Synthetic construct of novel peptide) [compound 10]
The “mRNA level of Dspp gene, Mean” value of the first is higher: 1.854 for the first, 1.746 for the second.

Compared with “11 (KYQRRRKSKY; Synthetic construct of novel peptide) [compound 11]”, “12 (KYQRRRRSKY; Synthetic construct of novel peptide) [compound 12]” is lower in “mRNA level of Dspp gene, Mean” value: 1.639 for the first, 1.548 for the second.

Compared with “13 (KYQRKKKSKY; Synthetic construct of novel peptide) [compound 13]”, “14 (KYQRKRKSKY; Synthetic construct of novel peptide) [compound 14]” is higher in “mRNA level of Dspp gene, Mean” value: 1.685 for the first, 1.846 for the second.

Going from “15 (KYQRKKRSKY; Synthetic construct of novel peptide) [compound 15]” to “16 (KYQRKRRSKY; Synthetic construct of novel peptide) [compound 16]”, the “mRNA level of Dspp gene, Mean” value falls from 1.964 to 1.739.

Going from “17 (KYQRRKKNYK; Synthetic construct of novel peptide) [compound 17]” to “18 (KYQRRKRNYK; Synthetic construct of novel peptide) [compound 18]”, the “mRNA level of Dspp gene, Mean” value rises from 2.117 to 2.319.

Going from “19 (KYQRRRKNYK; Synthetic construct of novel peptide) [compound 19]” to “20 (KYQRRRRNYK; Synthetic construct of novel peptide) [compound 20]”, the “mRNA level of Dspp gene, Mean” value rises from 1.931 to 2.553.

First: 21 (KYQRKKKNYK; Synthetic construct of novel peptide) [compound 21]
Second: 22 (KYQRKRKNYK; Synthetic construct of novel peptide) [compound 22]
The “mRNA level of Dspp gene, Mean” value of the first is lower: 1.893 for the first, 2.412 for the second.

Going from “23 (KYQRKKRNYK; Synthetic construct of novel peptide) [compound 23]” to “24 (KYQRKRRNYK; Synthetic construct of novel peptide) [compound 24]”, the “mRNA level of Dspp gene, Mean” value rises from 2.171 to 2.212.

First: 25 (KYQRRKKSYK; Synthetic construct of novel peptide) [compound 25]
Second: 26 (KYQRRKRSYK; Synthetic construct of novel peptide) [compound 26]
The “mRNA level of Dspp gene, Mean” value of the first is higher: 2.371 for the first, 2.193 for the second.

Going from “27 (KYQRRRKSYK; Synthetic construct of novel peptide) [compound 27]” to “28 (KYQRRRRSYK; Synthetic construct of novel peptide) [compound 28]”, the “mRNA level of Dspp gene, Mean” value rises from 1.993 to 2.453.

Going from “29 (KYQRKKKSYK; Synthetic construct of novel peptide) [compound 29]” to “30 (KYQRKRKSYK; Synthetic construct of novel peptide) [compound 30]”, the “mRNA level of Dspp gene, Mean” value rises from 1.883 to 2.512.

First: 31 (KYQRKKRSYK; Synthetic construct of novel peptide) [compound 31]
Second: 32 (KYQRKRRSYK; Synthetic construct of novel peptide) [compound 32]
The “mRNA level of Dspp gene, Mean” value of the first is higher: 2.371 for the first, 2.219 for the second.

Compared with “33 (KYRQRKKNKY; Synthetic construct of novel peptide) [compound 33]”, “34 (KYRQRKRNKY; Synthetic construct of novel peptide) [compound 34]” is higher in “mRNA level of Dspp gene, Mean” value: 1.712 for the first, 1.931 for the second.

Going from “35 (KYRQRRKNKY; Synthetic construct of novel peptide) [compound 35]” to “36 (KYRQRRRNKY; Synthetic construct of novel peptide) [compound 36]”, the “mRNA level of Dspp gene, Mean” value rises from 1.983 to 2.319.

First: 37 (KYRQKKKNKY; Synthetic construct of novel peptide) [compound 37]
Second: 38 (KYRQKRKNKY; Synthetic construct of novel peptide) [compound 38]
The “mRNA level of Dspp gene, Mean” value of the first is lower: 1.597 for the first, 2.116 for the second.

First: 39 (KYRQKKRNKY; Synthetic construct of novel peptide) [compound 39]
Second: 40 (KYRQKRRNKY; Synthetic construct of novel peptide) [compound 40]
The “mRNA level of Dspp gene, Mean” value of the first is lower: 1.712 for the first, 2.219 for the second.

Going from “41 (KYRQRKKSKY; Synthetic construct of novel peptide) [compound 41]” to “42 (KYRQRKRSKY; Synthetic construct of novel peptide) [compound 42]”, the “mRNA level of Dspp gene, Mean” value rises from 1.546 to 1.586.

Compared with “43 (KYRQRRKSKY; Synthetic construct of novel peptide) [compound 43]”, “44 (KYRQRRRSKY; Synthetic construct of novel peptide) [compound 44]” is higher in “mRNA level of Dspp gene, Mean” value: 1.669 for the first, 1.793 for the second.

First: 45 (KYRQKKKSKY; Synthetic construct of novel peptide) [compound 45]
Second: 46 (KYRQKRKSKY; Synthetic construct of novel peptide) [compound 46]
The “mRNA level of Dspp gene, Mean” value of the first is lower: 1.532 for the first, 1.887 for the second.

Compared with “47 (KYRQKKRSKY; Synthetic construct of novel peptide) [compound 47]”, “48 (KYRQKRRSKY; Synthetic construct of novel peptide) [compound 48]” is lower in “mRNA level of Dspp gene, Mean” value: 1.697 for the first, 1.558 for the second.

First: 49 (KYRQRKKNYK; Synthetic construct of novel peptide) [compound 49]
Second: 50 (KYRQRKRNYK; Synthetic construct of novel peptide) [compound 50]
The “mRNA level of Dspp gene, Mean” value of the first is higher: 1.923 for the first, 1.887 for the second.

First: 51 (KYRQRRKNYK; Synthetic construct of novel peptide) [compound 51]
Second: 52 (KYRQRRRNYK; Synthetic construct of novel peptide) [compound 52]
The “mRNA level of Dspp gene, Mean” value of the first is lower: 1.601 for the first, 2.019 for the second.

Going from “53 (KYRQKKKNYK; Synthetic construct of novel peptide) [compound 53]” to “54 (KYRQKRKNYK; Synthetic construct of novel peptide) [compound 54]”, the “mRNA level of Dspp gene, Mean” value falls from 1.592 to 1.437.

Going from “55 (KYRQKKRNYK; Synthetic construct of novel peptide) [compound 55]” to “56 (KYRQKRRNYK; Synthetic construct of novel peptide) [compound 56]”, the “mRNA level of Dspp gene, Mean” value rises from 1.663 to 1.701.

Compared with “57 (KYRQRKKSYK; Synthetic construct of novel peptide) [compound 57]”, “58 (KYRQRKRSYK; Synthetic construct of novel peptide) [compound 58]” is lower in “mRNA level of Dspp gene, Mean” value: 2.039 for the first, 1.998 for the second.

First: 59 (KYRQRRKSYK; Synthetic construct of novel peptide) [compound 59]
Second: 60 (KYRQRRRSYK; Synthetic construct of novel peptide) [compound 60]
The “mRNA level of Dspp gene, Mean” value of the first is lower: 1.792 for the first, 2.107 for the second.
